The values that follow come from the CheMixHub viscosity set.

Values joined by “and” are separate entries in the source; they are usually repeats but may differ in a detail not shown here. Identical values can stand only once. ± gives the uncertainty stated by the source.

For orientation: viscosity means the resistance of a fluid to flow. For the compound `CC(O)CCO` (configuration not stated), the viscosity by setting is: (298.15 K, 101 kPa) 96.7 ± 2.2 mPa·s and 96.8 ± 1.2 mPa·s; (303.15 K, 101 kPa) 69.7 ± 1.5 mPa·s and 70.93 ± 0.56 mPa·s; (308.15 K, 101 kPa) 51.8 ± 1.1 mPa·s and 53.72 ± 0.28 mPa·s; (313.15 K, 101 kPa) 40 ± 0.8 mPa·s and 40.13 ± 0.26 mPa·s; (318.15 K, 101 kPa) 29.9 ± 0.6 mPa·s and 31.22 ± 0.2 mPa·s.

`CCCCCCC(C)O` (configuration not stated): the viscosity was 6.49 ± 0.07 mPa·s (298.15 K, 101 kPa); 5.929 ± 0.13 mPa·s and 5.956 ± 0.069 mPa·s (298.15 K, 101.3 kPa); 4.794 ± 0.11 mPa·s and 4.803 ± 0.058 mPa·s (303.15 K, 101.3 kPa); 4.804 ± 0.054 mPa·s (303.15 K, 101.33 kPa); 3.909 ± 0.095 mPa·s and 3.907 ± 0.047 mPa·s (308.15 K, 101.3 kPa).

Regarding `CCCCCCn1cc[n+](C)c1.[Cl][Fe-]([Cl])([Cl])[Cl]`, the viscosity was determined as 73.92 ± 3.2 mPa·s (293.15 K, 101 kPa); 58.96 ± 2.5 mPa·s (298.15 K, 101 kPa); 47.89 ± 2 mPa·s (303.15 K, 101 kPa); 39.56 ± 1.7 mPa·s (308.15 K, 101 kPa); 33.07 ± 1.4 mPa·s (313.15 K, 101 kPa); 28.06 ± 1.2 mPa·s (318.15 K, 101 kPa). This compound had a viscosity (323.15 K, 101 kPa) of 24.02 ± 1 mPa·s.

For the setting “303.15 K, 101 kPa”, `CCOC(=O)C(Br)CC` (configuration not stated) gave a viscosity of 1.529 ± 0.0092 mPa·s.

In the case of `CCn1cc[n+](C)c1C.O=S(=O)([N-]S(=O)(=O)C(F)(F)F)C(F)(F)F`, the viscosity reads like this: (293.15 K, 101.3 kPa) 88.09 ± 1.9 mPa·s; (298.15 K, 101.3 kPa) 69.84 ± 1.5 mPa·s; (303.15 K, 101.3 kPa) 56.37 ± 1.2 mPa·s; (308.15 K, 101.3 kPa) 46.1 ± 0.96 mPa·s; (313.15 K, 101.3 kPa) 38.26 ± 0.8 mPa·s; (318.15 K, 101.3 kPa) 32.15 ± 0.67 mPa·s. The viscosity (323.15 K, 101.3 kPa) came to 27.31 ± 0.57 mPa·s.

As for `CCn1cc[n+](CCOC)c1.O=S(=O)([O-])C(F)(F)F`, the viscosity by setting is: (293.15 K, 101.33 kPa) 92.53 ± 2.9 mPa·s; (298.15 K, 101.33 kPa) 72.51 ± 2 mPa·s; (303.15 K, 101.33 kPa) 57.87 ± 1.5 mPa·s; (308.15 K, 101.33 kPa) 47.34 ± 1.2 mPa·s; (313.15 K, 101.33 kPa) 39.02 ± 1 mPa·s; (318.15 K, 101.33 kPa) 32.59 ± 0.85 mPa·s.

As to `COCCn1cc[n+](C)c1.C[C@@H](O)[C@H](N)C(=O)[O-]`, the viscosity by setting is: (298.15 K, 100 kPa) 900.5 ± 88 mPa·s; (303.15 K, 100 kPa) 625.4 ± 54 mPa·s; (308.15 K, 100 kPa) 362.1 ± 24 mPa·s; (313.15 K, 100 kPa) 260 ± 15 mPa·s; (318.15 K, 100 kPa) 184.4 ± 8.3 mPa·s; (323.15 K, 100 kPa) 136.8 ± 4.8 mPa·s.

With `COS(=O)(=O)[O-].Cn1cc[n+](C)c1`, the viscosity is, setting by setting: (298.15 K, 100 kPa) 93.4 ± 2.4 mPa·s; (298.15 K, 101 kPa) 78 ± 4.7 mPa·s; (303.15 K, 101 kPa) 61.9 ± 3.7 mPa·s; (308.15 K, 101 kPa) 49.9 ± 3 mPa·s; (313.15 K, 101 kPa) 40.9 ± 2.5 mPa·s.

For `NCCNCCNCCN`, the viscosity is 25.41 ± 2.5 mPa·s (303.15 K, 101 kPa); 15.31 ± 1.5 mPa·s (313.15 K, 101 kPa); 9.867 ± 0.99 mPa·s (323.15 K, 101 kPa).

Consider `O=C(Cl)c1ccccc1`, for which, for the setting “303.15 K, 101 kPa”, the viscosity was found to be 1.244 ± 0.015 mPa·s.

Where the note is “306.3 K, 101.33 kPa”, `[2H]OCCCCC` returned a viscosity of 2.685 ± 0.16 mPa·s.

On to `c1ccncc1`, for which the viscosity is, setting by setting: (293.15 K, 100 kPa) 0.9801 ± 0.012 mPa·s; (298 K, 101.3 kPa) 0.882 ± 0.012 mPa·s; (298.15 K, 100 kPa) 0.9155 ± 0.011 mPa·s; (298.15 K, 101.3 kPa) 0.903 ± 0.024 mPa·s; (298.25 K, 101.33 kPa) 0.88 ± 0.044 mPa·s; (303.15 K, 100 kPa) 0.8568 ± 0.011 mPa·s. Besides, the viscosity runs as follows: (303.15 K, 101.33 kPa) 0.828 ± 0.022 mPa·s; (308.15 K, 100 kPa) 0.8032 ± 0.01 mPa·s; (308.15 K, 101 kPa) 0.76 ± 0.02 mPa·s and 0.7914 ± 0.0073 mPa·s; (308.15 K, 101.3 kPa) 0.75 ± 0.02 mPa·s; (308.15 K, 101.33 kPa) 0.78 ± 0.009 mPa·s; (313.15 K, 100 kPa) 0.7546 ± 0.0096 mPa·s. Also, the viscosity (313.15 K, 101 kPa) was 0.714 ± 0.007 mPa·s (2×) and 0.724 ± 0.013 mPa·s; the viscosity (313.15 K, 101.33 kPa) is on record as 0.8 ± 0.04 mPa·s; the viscosity (318.15 K, 100 kPa) is 0.7103 ± 0.0092 mPa·s; the viscosity (318.15 K, 101 kPa) is listed as 0.6939 ± 0.0067 mPa·s; the viscosity (318.15 K, 101.3 kPa) is 0.675 ± 0.018 mPa·s; the viscosity (318.15 K, 101.33 kPa) worked out at 0.66 ± 0.008 mPa·s. Also, the viscosity (323.15 K, 100 kPa) amounted to 0.6698 ± 0.0088 mPa·s; the viscosity (323.15 K, 101 kPa) was 0.645 ± 0.0097 mPa·s and 0.6248 ± 0.017 mPa·s.
